# Source: the supplement of paper PMC4862054
# “And” between values parts separate entries of the source, which are not always exact repeats. Equal entries are not always repeated.
# Experiments:
# Details in all cases: incubation time: 72 h
# [1] = system: CAL-51; assay: drug sensitivity score (DSS), CellTiter-Blue viability (DSS (AUC-based score)); higher = stronger viability inhibition; extreme values may be limits of the assay
# Protocol: (§1)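 DSRT with the CellTiter-Blue (resazurin reduction) viability readout, fluorescence 560/590 nm, 72 h incubation. Plates were normalised to DMSO and benzethonium chloride controls. DSS is computed from the area under the fitted dose-response curve (5 or 9 concentrations).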
# [2] = system: MFM-223; assay: as above
# Protocol: as §1
# [3] = system: MDA-MB-436; assay: as above
# Protocol: as §1
# [4] = system: HCC1937; assay: as above
# Protocol: as §1
# [5] = system: HCC1143; assay: as above
# Protocol: as §1
# [6] = system: SK-BR-3; assay: as above
# Protocol: as §1
# [7] = system: BT-549; assay: as above
# Protocol: as §1
# [8] = system: MDA-MB-231; assay: as above
# Protocol: as §1
# [9] = system: HCC1599; assay: as above
# Protocol: as §1
# [10] = system: Hs578T; assay: as above
# Protocol: as §1
# [11] = system: MDA-MB-468; assay: as above
# Protocol: as §1
# [12] = system: CAL-148; assay: as above
# Protocol: as §1
# [13] = system: DU-4475; assay: as above
# Protocol: as §1
# [14] = system: HDQ-P1; assay: as above
# Protocol: as §1
# [15] = system: BT-474; assay: as above
# Protocol: as §1
# [16] = system: CAL-120; assay: as above
# Protocol: as §1
# [17] = system: MDA-MB-453; assay: as above
# Protocol: as §1
# [18] = system: CAL-85-1; assay: as above
# Protocol: as §1
# [19] = system: CAL-51; assay: normalised viability (% of control), CellTiter-Blue; higher = more viable cells (about 100 = DMSO control)
# Protocol: (§2)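 DSRT, CellTiter-Blue viability, 72 h incubation. Signal is normalised to DMSO and benzethonium chloride controls. Value is the normalised response at dose 3.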
# [20] = system: MFM-223; assay: as above
# Protocol: as §2
# [21] = system: MDA-MB-436; assay: as above
# Protocol: as §2
# [22] = system: BT-549; assay: as above
# Protocol: as §2
# [23] = system: MDA-MB-468; assay: as above
# Protocol: as §2
# [24] = system: CAL-148; assay: as above
# Protocol: as §2
# [25] = system: DU-4475; assay: as above
# Protocol: as §2
# [26] = system: HDQ-P1; assay: as above
# Protocol: as §2
# [27] = system: BT-474; assay: as above
# Protocol: as §2
# [28] = system: CAL-120; assay: as above
# Protocol: as §2
Structure (SMILES),drug sensitivity score [1],drug sensitivity score [2],drug sensitivity score [3],drug sensitivity score [4],drug sensitivity score [5],drug sensitivity score [6],drug sensitivity score [7],drug sensitivity score [8],drug sensitivity score [9],drug sensitivity score [10],drug sensitivity score [11],drug sensitivity score [12],drug sensitivity score [13],drug sensitivity score [14],drug sensitivity score [15],drug sensitivity score [16],drug sensitivity score [17],drug sensitivity score [18],normalised viability ([19]; 10 nM) [%],normalised viability ([20]; 100 nM) [%],other results
CC1(C)CNc2cc(NC(=O)c3cccnc3NCc3ccncc3)ccc21 [Motesanib],0,0,0,0,0,0,0,0,0,0,0,0,0,0,0,0,0,0,111,80.2,normalised viability ([21]; 100 nM): 79.7%; normalised viability ([22]; 100 nM): 88.1%; normalised viability ([23]; 100 nM): 113%; normalised viability ([24]; 10 nM): 82.5%; normalised viability ([25]; 10 nM): 90.4%; normalised viability ([26]; 10 nM): 88.1%; normalised viability ([27]; 100 nM): 87.7%; normalised viability ([28]; 100 nM): 71.9%
CC1=C2C[C@H]3[C@@H](CC=C4C[C@@H](O)CC[C@@]43C)[C@@H]2CC[C@]12O[C@@H]1C[C@H](C)CN[C@H]1[C@H]2C [Cyclopamine],0,0,0,0,0,0,0,0,0,0,0,0,0,0,0,0,0,0,114,103,normalised viability ([21]; 100 nM): 96.3%; normalised viability ([22]; 100 nM): 111%; normalised viability ([23]; 100 nM): 94.4%; normalised viability ([24]; 10 nM): 113%; normalised viability ([25]; 10 nM): 107%; normalised viability ([26]; 10 nM): 120%; normalised viability ([27]; 100 nM): 124%; normalised viability ([28]; 100 nM): 88.2%
CC(=O)O[C@@]12CO[C@@H]1C[C@H](O)[C@@]1(C)C(=O)[C@H](O)C3=C(C)[C@@H](OC(=O)[C@H](O)[C@@H](NC(=O)OC(C)(C)C)c4ccccc4)C[C@@](O)([C@@H](OC(=O)c4ccccc4)[C@H]21)C3(C)C [Docetaxel],22.4 and 25.2,16.2 and 17.8,18.7 and 19.2,27.2 and 24.9,19.6 and 25.2,28.9 and 29.4,27.3 and 29.3,24.4 and 25.8,0,31.2 and 30.6,19.4 and 20.5,26.1 and 28.4,26.1 and 28.1,17.8 and 22.5,21.1 and 19.5,24 and 24.9,24.2 and 24.9,22.5 and 22.9,,,normalised viability ([19]; 1 nM): 101% and 90.4%; normalised viability ([20]; 10 nM): 59.6% and 53.8%; normalised viability ([21]; 10 nM): 51.1% and 52%; normalised viability ([22]; 10 nM): 28% and 25.4%; normalised viability ([23]; 10 nM): 50% and 41.6%; normalised viability ([24]; 1 nM): 99.2% and 81.9%; normalised viability ([25]; 1 nM): 86% and 95.2%; normalised viability ([26]; 1 nM): 78.7% and 71.2%; normalised viability ([27]; 10 nM): 49.9% and 46.2%; normalised viability ([28]; 10 nM): 32.1% and 30.1%
COc1cc(F)c(F)c(Nc2ccc(I)cc2F)c1NS(=O)(=O)C1(C[C@H](O)CO)CC1 [RDEA119],6.65,5.52,0,5.85,8.17,0,0,18.7,0,8.25,4.71,0,28.1,11.4,0,7.36,5.64,10.3,91.2,85,normalised viability ([21]; 100 nM): 90.4%; normalised viability ([22]; 100 nM): 77.4%; normalised viability ([23]; 100 nM): 86.1%; normalised viability ([24]; 10 nM): 93.6%; normalised viability ([25]; 10 nM): 86%; normalised viability ([26]; 10 nM): 74.8%; normalised viability ([27]; 100 nM): 98.7%; normalised viability ([28]; 100 nM): 93.7%
Oc1ncnc2[nH]ncc12 [Allopurinol],0,0,0,0,0,0,0,0,0,0,0,0,0,0,0,0,0,0,90,91.2,normalised viability ([21]; 100 nM): 108%; normalised viability ([22]; 100 nM): 87.3%; normalised viability ([23]; 100 nM): 105%; normalised viability ([24]; 10 nM): 108%; normalised viability ([25]; 10 nM): 104%; normalised viability ([26]; 10 nM): 106%; normalised viability ([27]; 100 nM): 106%; normalised viability ([28]; 100 nM): 107%
O=C1CN2Cc3c(ccc(Cl)c3Cl)N=C2N1 [Anagrelide],4.77,0,0,2.41,0,0,0,0,0,0,0,0,0,0,0,0,0,0,98.7,93,normalised viability ([21]; 100 nM): 94.2%; normalised viability ([22]; 100 nM): 92.5%; normalised viability ([23]; 100 nM): 95.2%; normalised viability ([24]; 10 nM): 97%; normalised viability ([25]; 10 nM): 98.6%; normalised viability ([26]; 10 nM): 114%; normalised viability ([27]; 100 nM): 122%; normalised viability ([28]; 100 nM): 85.6%
Nc1nc2[nH]cnc2c(=S)[nH]1 [Thioguanine],0.794,0,4.56,3.55,0,0.902,0.924,8.63,0,2.55,7.48,2.39,0,0,0,7.28,0,3.32,108,95.2,normalised viability ([21]; 100 nM): 103%; normalised viability ([22]; 100 nM): 94.6%; normalised viability ([23]; 100 nM): 107%; normalised viability ([24]; 10 nM): 109%; normalised viability ([25]; 10 nM): 105%; normalised viability ([26]; 10 nM): 103%; normalised viability ([27]; 100 nM): 109%; normalised viability ([28]; 100 nM): 96.8%
C[C@]12CC[C@@H]3c4ccc(OC(=O)N(CCCl)CCCl)cc4CC[C@H]3[C@@H]1CC[C@@H]2O [Estramustine],0,0,0,0,0,0,0,0,0,0,0,0,0,0,0,0,0,0,,,normalised viability ([19]; 0.99 nM): 88.3%; normalised viability ([20]; 9.9 nM): 95.9%; normalised viability ([21]; 9.9 nM): 92.1%; normalised viability ([22]; 9.9 nM): 79.8%; normalised viability ([23]; 9.9 nM): 108%; normalised viability ([24]; 0.99 nM): 113%; normalised viability ([25]; 0.99 nM): 85.1%; normalised viability ([26]; 0.99 nM): 109%; normalised viability ([27]; 9.9 nM): 113%; normalised viability ([28]; 9.9 nM): 102%
Cn1cnc2c(F)c(Nc3ccc(Br)cc3Cl)c(C(=O)NOCCO)cc21 [Selumetinib],0.877,0,0,2.95,12.6,0,0,13.7,3.63,1.17,0,0,25.4,4.32,0,0.649,0,6.78,113,87.6,normalised viability ([21]; 100 nM): 123%; normalised viability ([22]; 100 nM): 110%; normalised viability ([23]; 100 nM): 92.5%; normalised viability ([24]; 10 nM): 91.6%; normalised viability ([25]; 10 nM): 93.8%; normalised viability ([26]; 10 nM): 116%; normalised viability ([27]; 100 nM): 94.5%; normalised viability ([28]; 100 nM): 82.8%
